Earlier results, collected in patent publication US10299480B2 (priority 2014, dated 2019).

What was measured:
[1] = system: adenovirus; details: 10 minute exposure, same conditions
[2] = system: herpes virus; details: 10 minute exposure
[3] = system: poliovirus

For `N=C(NCCCCCCNC(=N)NC(=N)Nc1ccc(Cl)cc1)NC(=N)Nc1ccc(Cl)cc1.O=C(O)[C@H](O)[C@@H](O)[C@H](O)[C@H](O)CO.O=C(O)[C@H](O)[C@@H](O)[C@H](O)[C@H](O)CO` [CHX, Chlorhexidine digluconate], the “Effect on non-enveloped virus” value [1] is given as “virtually no effect”, the “Reduction of the number of virus particles” value [2] is given as 5-6 times and the “Effect on non-enveloped virus” value [3] is given as “virtually no effect”.
